Assay results published in patent publication US20260226073A1 (AURIGENE ONCOLOGY LIMITED, priority 2023, published 2026).

Molecular target: T1, human recombinant CBL-b (human Biotin CBL-b recombinant protein a.a. 39-426) (Homo sapiens, UniProt Q13191)
T1 construct: human Biotin CBL-b recombinant protein a.a; 39-426; Biotin (biotinylated); made in house
Test: Biochemical assay for CBL-b inhibition (ligand displacement TR-FRET)
Type: binding
Details: 50 nM CBL-b, 0.3 μM Bodipy FL-Probe, read-out: IC50 (CBL-b inhibition, group)
Description: The inhibitory activity of the test compounds was assessed by Ligand displacement TR-FRET assay. The human recombinant CBL-b (human Biotin CBL-b recombinant protein a.a. 39-426; synthesised in-house) was diluted in enzyme assay buffer (20 mM HEPES, 150 mM NaCl, 0.01% Triton X, 0.01% BSA, 0.5 mM TCEP) in a 10 μl volume and plated in 384-well plates (Cat #781075, Greiner) to a final concentration of 50 nM. The enzyme/compound mixture was incubated at RT for 60 min. The Bodipy FL-Probe described in WO 2020/210508 (synthesized in-house) diluted in enzyme assay buffer was added to the plate and incubated for 60 min RT, the final probe concentration was 0.3 μM. After 60 min incubation, 10 μl of detection mix (Terbium Streptavidin, (Cat #PV3576, Invitrogen) diluted in 1× Lance buffer) was added and incubated for 60 min at room temperature. Time-resolved fluorescence (excitation, 320 nm; emission donor, 615 nm; emission acceptor, 665 nm) was monitored by using 2030 multilabel reader Victor5 (PerkinElmer). The IC50 (concentration for half maximal inhibition) and % maximum inhibition of the compounds were estimated by fitting the dose response data to a sigmoidal curve fitting equation using Graph pad Prism software V. 8.

T1 sequence (Q13191 39-426): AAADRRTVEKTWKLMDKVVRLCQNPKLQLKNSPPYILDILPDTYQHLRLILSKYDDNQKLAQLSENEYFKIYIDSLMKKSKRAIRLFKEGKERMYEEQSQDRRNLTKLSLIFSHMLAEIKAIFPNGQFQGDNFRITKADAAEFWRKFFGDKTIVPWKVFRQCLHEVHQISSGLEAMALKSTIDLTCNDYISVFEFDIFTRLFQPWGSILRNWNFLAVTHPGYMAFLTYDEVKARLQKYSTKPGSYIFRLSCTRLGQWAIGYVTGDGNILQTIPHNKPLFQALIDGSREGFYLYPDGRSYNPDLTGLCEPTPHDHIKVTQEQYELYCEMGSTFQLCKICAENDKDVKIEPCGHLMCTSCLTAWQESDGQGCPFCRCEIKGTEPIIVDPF

Compound	IC50 [nM]
CCNCCc1cc(N2Cc3ccc(C4(Cc5nncn5C)COC4)cc3C2=O)cc(C(F)(F)F)c1 [Compound 75, 2-(3-(2-(Ethylamino)ethyl)-5-(trifluoromethyl)phenyl)-6-(3-((4-methyl-4H-1,2,4-triazol-3-yl)methyl)oxetan-3-yl)isoindolin-1-one]	300 to 5000
Cc1cc(N2Cc3ccc(C4(Cc5nncn5C)COC4)cc3C2=O)cc2c1cnn2CCN(C)C [Compound 76, 2-(1-(2-(Dimethylamino)ethyl)-4-methyl-1H-indazol-6-yl)-6-(3-((4-methyl-4H-1,2,4-triazol-3-yl)methyl)oxetan-3-yl)isoindolin-1-one]	300 to 5000
CCN1CCc2c(cc(N3Cc4ccc(C5(Cc6nncn6C)COC5)cc4C3=O)cc2C(F)(F)F)C1 [Compound 77, 2-(2-Ethyl-5-(trifluoromethyl)-1,2,3,4-tetrahydroisoquinolin-7-yl)-6-(3-((4-methyl-4H-1,2,4-triazol-3-yl)methyl)oxetan-3-yl)isoindolin-1-one]	300 to 5000
CCN(CC)Cc1cc(Cl)nc(N2Cc3ccc(C4(Cc5nncn5C)COC4)cc3C2=O)c1 [Compound 79, 2-(6-Chloro-4-((diethylamino)methyl)pyridin-2-yl)-6-(3-((4-methyl-4H-1,2,4-triazol-3-yl)methyl)oxetan-3-yl)isoindolin-1-one]	300 to 5000
Cn1cnnc1CC1(c2ccc3c(c2)C(=O)N(c2cc(CNCCOCCOCCOCCN)cc(Cl)n2)C3)COC1 [Compound 99, 2-(4-(13-Amino-5,8,11-trioxa-2-azatridecyl)-6-chloropyridin-2-yl)-6-(3-((4-methyl-4H-1,2,4-triazol-3-yl)methyl)oxetan-3-yl)isoindolin-1-one]	300 to 5000
CC(C)NCC(O)c1cc(N2Cc3ccc(C4(Cc5nncn5C)COC4)cc3C2=O)cc(C(F)(F)F)c1 (stereo not shown) [Compound 100, 2-(3-(1-Hydroxy-2-(isopropylamino)ethyl)-5-(trifluoromethyl)-phenyl)-6-(3-((4-methyl-4H-1,2,4-triazol-3-yl)methyl)oxetan-3-yl)isoindolin-1-one]	300 to 5000
C[C@H]1CCCN(Cc2cc(Cl)nc(N3Cc4ccc(-c5c(-c6nncn6C)cnn5C)cc4C3=O)c2)C1 [Compound 114, (S)-2-(6-Chloro-4-((3-methylpiperidin-1-yl)methyl)pyridin-2-yl)-6-(1-methyl-4-(4-methyl-4H-1,2,4-triazol-3-yl)-1H-pyrazol-5-yl)isoindolin-1-one]	300 to 5000
C[C@H]1CCCN(Cc2cc(Cl)nc(N3Cc4ccc(-c5ccccc5-c5nncn5C)cc4C3=O)c2)C1 [Compound 118, (S)-2-(6-Chloro-4-((3-methylpiperidin-1-yl)methyl)pyridin-2-yl)-6-(2-(4-methyl-4H-1,2,4-triazol-3-yl)phenyl)isoindolin-1-one]	< 80
Cc1nc(CNCc2cc(Cl)nc(N3Cc4ccc(C5(Cc6nncn6C)COC5)cc4C3=O)c2)cs1 [Compound 129, 2-(6-Chloro-4-((((2-methylthiazol-4-yl)methyl)amino)methyl)-pyridin-2-yl)-6-(3-((4-methyl-4H-1,2,4-triazol-3-yl)methyl)oxetan-3-yl)isoindolin-1-one]	80 to 300
Cn1cnnc1CC1(c2ccc3c(c2)C(=O)N(c2cc(CNCC4(F)CC4)cc(Cl)n2)C3)COC1 [Compound 130, 2-(6-Chloro-4-((((1-fluorocyclopropyl)methyl)amino)methyl)-pyridin-2-yl)-6-(3-((4-methyl-4H-1,2,4-triazol-3-yl)methyl)oxetan-3-yl)isoindolin-1-one]	80 to 300
Cc1cc(CO)cc(N2Cc3ccc(-c4ccc(F)cc4-c4nncn4C)cc3C2=O)n1 [Compound 136, 6-(4-Fluoro-2-(4-methyl-4H-1,2,4-triazol-3-yl)phenyl)-2-(4-(hydroxymethyl)-6-methylpyridin-2-yl)isoindolin-1-one]	300 to 5000

Second part, the compound after the results:

IC50 [nM]	Compound
300 to 5000	Cn1cnnc1CC1(c2ccc3c(c2)C(=O)N(c2cc(CN4CCC(C(F)(F)F)CC4)cc(C(F)(F)F)n2)C3)COC1 [Compound 38, 6-(3-((4-Methyl-4H-1,2,4-triazol-3-yl)methyl)oxetan-3-yl)-2-(6-(trifluoro-methyl)-4-((4-(trifluoromethyl)piperidin-1-yl)methyl)pyridin-2-yl)isoindolin-1-one]
300 to 5000	Cn1cnnc1CC1(c2ccc3c(c2)C(=O)N(c2cc(CN4CCC(O)CC4)cc(C(F)(F)F)n2)C3)COC1 [Compound 43, 2-(4-((4-Hydroxypiperidin-1-yl)methyl)-6-(trifluoromethyl)pyridin-2-yl)-6-(3-((4-methyl-4H-1,2,4-triazol-3-yl)methyl)oxetan-3-yl)isoindolin-1-one]
300 to 5000	Cn1cnnc1CC1(c2ccc3c(c2)C(=O)N(c2cc(CN4CCC5(CCCO5)C4)cc(C(F)(F)F)n2)C3)COC1 (stereo not shown) [Compound 50, 2-(4-((1-Oxa-7-azaspiro[4.4]nonan-7-yl)methyl)-6-(trifluoromethyl)pyridin-2-yl)-6-(3-((4-methyl-4H-1,2,4-triazol-3-yl)methyl)oxetan-3-yl)isoindolin-1-one]
300 to 5000	Cc1nccn1Cc1cc(N2Cc3ccc(C4(Cc5nncn5C)COC4)cc3C2=O)nc(C(F)(F)F)c1 [Compound 54, 2-(4-((2-Methyl-1H-imidazol-1-yl)methyl)-6-(trifluoromethyl)pyridin-2-yl)-6-(3-((4-methyl-4H-1,2,4-triazol-3-yl)methyl)oxetan-3-yl)isoindolin-1-one]
300 to 5000	Cn1cnnc1CC1(c2ccc3c(c2)C(=O)N(c2cc(CN4CC5(COC5)C4)cc(C(F)(F)F)n2)C3)COC1 [Compound 55, 2-(4-((2-Oxa-6-azaspiro[3.3]heptan-6-yl)methyl)-6-(trifluoromethyl)pyridin-2-yl)-6-(3-((4-methyl-4H-1,2,4-triazol-3-yl)methyl)oxetan-3-yl)isoindolin-1-one]
80 to 300	CN1CCN(Cc2cc(N3Cc4ccc(C5(Cc6nncn6C)COC5)cc4C3=O)nc(C(F)(F)F)c2)CC1=O [Compound 63, 2-(4-((4-Methyl-3-oxopiperazin-1-yl)methyl)-6-(trifluoromethyl)pyridin-2-yl)-6-(3-((4-methyl-4H-1,2,4-triazol-3-yl)methyl)oxetan-3-yl)isoindolin-1-one]
300 to 5000	Cc1cncn1Cc1cc(N2Cc3ccc(C4(Cc5nncn5C)COC4)cc3C2=O)nc(C(F)(F)F)c1 [Compound 69, 2-(4-((5-Methyl-1H-imidazol-1-yl)methyl)-6-(trifluoromethyl)pyridin-2-yl)-6-(3-((4-methyl-4H-1,2,4-triazol-3-yl)methyl)oxetan-3-yl)isoindolin-1-one]
300 to 5000	Cc1cn(Cc2cc(N3Cc4ccc(C5(Cc6nncn6C)COC5)cc4C3=O)nc(C(F)(F)F)c2)cn1 [Compound 70, 2-(4-((4-Methyl-1H-imidazol-1-yl)methyl)-6-(trifluoromethyl)pyridin-2-yl)-6-(3-((4-methyl-4H-1,2,4-triazol-3-yl)methyl)oxetan-3-yl)isoindolin-1-one]
300 to 5000	C[C@@H]1CN(Cc2cc(N3Cc4ccc(C5(Cc6nncn6C)COC5)cc4C3=O)nc(C(F)(F)F)c2)C[C@H](C)O1 [Compound 72, 2-(4-(((2R,6S)-2,6-Dimethylmorpholino)methyl)-6-(trifluoromethyl)pyridin-2-yl)-6-(3-((4-methyl-4H-1,2,4-triazol-3-yl)methyl)oxetan-3-yl)isoindolin-1-one]
300 to 5000	CN1CC2CC1CN2Cc1cc(N2Cc3ccc(C4(Cc5nncn5C)COC4)cc3C2=O)nc(C(F)(F)F)c1 (stereo not shown) [Compound 81, 2-(4-((5-Methyl-2,5-diazabicyclo[2.2.1]heptan-2-yl)methyl)-6-(trifluoromethyl)-pyridin-2-yl)-6-(3-((4-methyl-4H-1,2,4-triazol-3-yl)methyl)oxetan-3-yl)isoindolin-1-one]
300 to 5000	C[C@@H]1CN(Cc2cc(N3Cc4ccc(C5(Cc6nncn6C)COC5)cc4C3=O)nc(C(F)(F)F)c2)CCN1 [Compound 96, (R)-6-(3-((4-Methyl-4H-1,2,4-triazol-3-yl)methyl)oxetan-3-yl)-2-(4-((3-methylpiperazin-1-yl)methyl)-6-(trifluoromethyl)pyridin-2-yl)isoindolin-1-one]
300 to 5000	C[C@@H]1CN(Cc2cc(N3Cc4ccc(C5(Cc6nncn6C)COC5)cc4C3=O)nc(C(F)(F)F)c2)CCN1C [Compound 97, (R)-2-(4-((3,4-Dimethylpiperazin-1-yl)methyl)-6-(trifluoromethyl)pyridin-2-yl)-6-(3-((4-methyl-4H-1,2,4-triazol-3-yl)methyl)oxetan-3-yl)isoindolin-1-one]
300 to 5000	C[C@@H]1CN(Cc2cc(N3Cc4ccc(C5(Cc6nncn6C)COC5)cc4C3=O)nc(C(F)(F)F)c2)C[C@H](C)N1 [Compound 98, 2-(4-(((3R,5S)-3,5-Dimethylpiperazin-1-yl)methyl)-6-(trifluoro-methyl)pyridin-2-yl)-6-(3-((4-methyl-4H-1,2,4-triazol-3-yl)methyl)oxetan-3-yl)-isoindolin-1-one]
300 to 5000	Cn1cc2c(n1)CCCN2Cc1cc(N2Cc3ccc(C4(Cc5nncn5C)COC4)cc3C2=O)nc(C(F)(F)F)c1 [Compound 128, 2-(4-((2-Methyl-2,5,6,7-tetrahydro-4H-pyrazolo[4,3-b]pyridin-4-yl)methyl)-6-(trifluoromethyl)pyridin-2-yl)-6-(3-((4-methyl-4H-1,2,4-triazol-3-yl)methyl)oxetan-3-yl)isoindolin-1-one]
